Measurements as given in patent US20150232420A1, “TRANSGLUTAMINASE TG2 INHIBITORS, PHARMACEUTICAL COMPOSITIONS, AND METHODS OF USE THEREOF” (priority 2012, published 2015).
pIC50: −log10 of the molar value.

biological target: T1, human TG2 (Homo sapiens, UniProt P21980); assay: fluorescent screening assay for human TG2; assay type: biochemical; conditions: Table 7; 20 nM TG2, 37° C.; read-out: IC50
T1 sequence (P21980 1-687): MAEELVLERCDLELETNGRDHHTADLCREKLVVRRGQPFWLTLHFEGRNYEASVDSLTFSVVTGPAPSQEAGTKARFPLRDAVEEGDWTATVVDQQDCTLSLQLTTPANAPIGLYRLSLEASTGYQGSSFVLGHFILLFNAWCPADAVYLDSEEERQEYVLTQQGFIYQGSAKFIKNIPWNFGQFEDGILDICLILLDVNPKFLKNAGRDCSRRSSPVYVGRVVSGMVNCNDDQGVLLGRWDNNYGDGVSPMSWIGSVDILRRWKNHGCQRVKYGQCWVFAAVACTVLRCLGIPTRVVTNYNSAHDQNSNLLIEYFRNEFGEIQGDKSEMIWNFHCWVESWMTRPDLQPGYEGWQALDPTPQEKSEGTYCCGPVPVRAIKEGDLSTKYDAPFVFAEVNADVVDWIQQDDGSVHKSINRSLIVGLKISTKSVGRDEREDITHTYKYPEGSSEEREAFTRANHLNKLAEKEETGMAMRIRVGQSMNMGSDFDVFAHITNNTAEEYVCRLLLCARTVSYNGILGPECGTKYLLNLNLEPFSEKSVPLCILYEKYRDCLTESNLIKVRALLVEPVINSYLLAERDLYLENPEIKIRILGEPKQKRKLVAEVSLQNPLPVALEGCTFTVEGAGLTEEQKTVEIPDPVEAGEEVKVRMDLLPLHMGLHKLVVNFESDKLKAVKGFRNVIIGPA
Method: The fluorescent screening assay for human TG2 was performed as described herein: Assay conditions were 20 nM TG2, 8 μM N,N-dimethylated Casein (NMC) and 16 μM K×D (used for all transglutaminase assays) in 25 mM Hepes, pH 7.4, 250 mM NaCl, 2 mM MgCl2, 0.5 mM CaCl2, 0.2 mM DTT, 0.05% Pluronic F-127 at 37° C. A time point was taken with a microplate reader (Safire or Ultra, Tecan; ex: 350 nm, em: 535 nm) every 3 minutes for up to 2 hours and the initial linear reaction progress was used to determine the reaction velocity as a measure for enzyme activity. Assay conditions were identical for human TG6 and similar for human TG1 and mouse TG2 apart from enzyme concentration (mTG2 at 5 nM; TG1 at 10 nM) and CaCl2 concentration (0.2 mM for mTG2; 0.05 mM for TG1). Factor XIIIa was activated using 0.1 μg/μl thrombin (Sigma) in 35 mM Tris pH 8.0 for 20 min at 30° C. and the transamidation reaction was performed with 20 nM Factor XIIIa in 50 mM Tris pH 8.0, 1.25 mM CaCl2, 0.05% Pluronic, 0.2 mM DTT. TG3 was activated with 0.02 μg/μl thrombin under the same conditions as Factor XIIIa and assay conditions were 10 nM TG3 in 50 mM Hepes, pH 8, 20 mM CaCl2, 0.2 mM DTT, 0.05% Pluronic F-127.

| Compound | pIC50 |
| --- | --- |
| C=CC(=O)NCCCC[C@H](NC(=O)OCc1ccccc1)C(=O)N1CCCCC1 [benzyl N-[(2S)-1-oxo-1-(piperidin-1-yl)-6-(prop-2-enamido)hexan-2-yl]carbamate] | 4.00 to 6.00 |
| C=CC(=O)NCCCC[C@H](NC(=O)OCc1ccc(C)cc1)C(=O)O [(2S)-2-({[(4-methylphenyl)methoxy]carbonyl}amino)-6-(prop-2-enamido)hexanoic acid] | 4.00 to 6.00 |
| C=CC(=O)Nc1ccc(C[C@H](NC(=O)OCc2ccccc2)C(=O)O)cc1 [(2S)-2-{[(benzyloxy)carbonyl]amino}-3-[4-(prop-2-enamido)phenyl]propanoic acid] | 4.00 to 6.00 |
| C=CC(=O)NCCCC[C@H](NC(=O)c1ccc2ccccc2c1)C(=O)N1CCN(c2cccc(C)n2)CC1 [N-[(5S)-6-[4-(6-methylpyridin-2-yl)piperazin-1-yl]-5-(naphthalen-2-ylformamido)-6-oxohexyl]prop-2-enamide] | 4.00 to 6.00 |
| C=CC(=O)NCCCC[C@H](NC(=O)OCc1ccccc1)C(=O)N(CC)CC [benzyl N-[(1S)-1-(diethylcarbamoyl)-5-(prop-2-enamido)pentyl]carbamate] | 4.00 to 6.00 |
| C=CC(=O)NCCCC[C@H](NC(=O)OCc1c(F)cccc1F)C(=O)O [(2S)-2-({[(2,6-difluorophenyl)methoxy]carbonyl}amino)-6-(prop-2-enamido)hexanoic acid] | 4.00 to 6.00 |
| C=CC(=O)N1CCC(CC(NC(=O)OC(C)(C)C)C(=O)O)CC1 (centres unmarked) [2-{[(tert-butoxy)carbonyl]amino}-3-[1-(prop-2-enoyl)piperidin-4-yl]propanoic acid] | 4.00 to 6.00 |
| C=CC(=O)NCCCC[C@H](NC(=O)OC)C(=O)O [(2S)-2-[(methoxycarbonyl)amino]-6-(prop-2-enamido)hexanoic acid] | 4.00 to 6.00 |
| C=CC(=O)NCCCC[C@H](NC(=O)OCc1ccccc1)C(=O)O [(2S)-2-{[(benzyloxy)carbonyl]amino}-6-(prop-2-enamido)hexanoic acid] | 4.00 to 6.00 |
| C=CC(=O)NCCCC[C@H](NC(=O)OCc1ccc(C(F)(F)F)cc1)C(=O)O [(2S)-6-(prop-2-enamido)-2-[({[4-(trifluoromethyl)phenyl]methoxy}carbonyl)amino]hexanoic acid] | 4.00 to 6.00 |
| C=CC(=O)NCCCC[C@H](NC(=O)OCc1ccccc1)C(=O)N1CCC(c2ccccc2)CC1 [benzyl N-[(2S)-1-oxo-1-(4-phenylpiperidin-1-yl)-6-(prop-2-enamido)hexan-2-yl]carbamate] | > 7.00 |
| C=CC(=O)NCCCC[C@H](NC(=O)OCc1ccc(F)cc1)C(=O)O [(2S)-2-({[(4-fluorophenyl)methoxy]carbonyl}amino)-6-(prop-2-enamido)hexanoic acid] | 4.00 to 6.00 |
| C=CC(=O)NCCCC[C@H](NC(=O)OCc1ccccc1)C(=O)NC1C2CC3CC(C2)CC1C3 (stereo partly drawn) [benzyl N-[(1S)-1-[(adamantan-2-yl)carbamoyl]-5-(prop-2-enamido)pentyl]carbamate] | 4.00 to 6.00 |
| C=CC(=O)NCCCC[C@H](NC(=O)OCc1ccccc1C(F)(F)F)C(=O)O [(2S)-6-(prop-2-enamido)-2-[({[2-(trifluoromethyl)phenyl]methoxy}carbonyl)amino]hexanoic acid] | 4.00 to 6.00 |
| C=CC(=O)NCCCC[C@H](NC(=O)OCc1ccccc1)C(=O)N1CCN(C(=O)OC(C)(C)C)CC1 [tert-butyl 4-[(2S)-2-{[(benzyloxy)carbonyl]amino}-6-(prop-2-enamido)hexanoyl]piperazine-1-carboxylate] | 6.00 to 7.00 |
| C=CC(=O)NCCCC[C@H](NC(=O)OCc1ccccc1)C(=O)N1CCCC1 [benzyl N-[(2S)-1-oxo-6-(prop-2-enamido)-1-(pyrrolidin-1-yl)hexan-2-yl]carbamate] | 6.00 to 7.00 |
| C=CC(=O)NCCCC[C@H](NC(=O)OCc1ccccc1)C(=O)N1CCN(c2nccs2)CC1 [benzyl N-[(2S)-1-oxo-6-(prop-2-enamido)-1-[4-(1,3-thiazol-2-yl)piperazin-1-yl]hexan-2-yl]carbamate] | 6.00 to 7.00 |
| C=CC(=O)NCCCC[C@H](NC(=O)OCc1ccccc1)C(=O)N1CCN(c2ncccc2C)CC1 [benzyl N-[(2S)-1-[4-(3-methylpyridin-2-yl)piperazin-1-yl]-1-oxo-6-(prop-2-enamido)hexan-2-yl]carbamate] | 6.00 to 7.00 |
| C=CC(=O)NCCC1C[C@@H](C(=O)OC)N(C(=O)OC(C)(C)C)C1 (stereo partly drawn) [1-tert-butyl 2-methyl (2S)-4-[2-(prop-2-enamido)ethyl]pyrrolidine-1,2-dicarboxylate] | 4.00 to 6.00 |
| C=CC(=O)NCCCC[C@H](NC(C)=O)C(=O)N1CCN(c2cccc(C)n2)CC1 [N-[(5S)-5-acetamido-6-[4-(6-methylpyridin-2-yl)piperazin-1-yl]-6-oxohexyl]prop-2-enamide] | 6.00 to 7.00 |
